Measurements: patent publication US20250122160A1, “PROTEIN TYROSINE PHOSPHATASE INHIBITORS AND METHODS OF USE THEREOF” (Calico Life Sciences LLC, priority 0001, published 2025)

How the values were obtained:
[1] = target: T1, His tagged PTPN2 (TC45) protein (Homo sapiens, UniProt P17706); assay: Mobility shift assay (MSA) to determine potency of PTPN2 inhibitors; assay type: biochemical; conditions: 0.5 nM enzyme, 2 μM substrate
T1 construct: made in house
T1 sequence (P17706 with tags, fused parts or gaps isoform P17706-2): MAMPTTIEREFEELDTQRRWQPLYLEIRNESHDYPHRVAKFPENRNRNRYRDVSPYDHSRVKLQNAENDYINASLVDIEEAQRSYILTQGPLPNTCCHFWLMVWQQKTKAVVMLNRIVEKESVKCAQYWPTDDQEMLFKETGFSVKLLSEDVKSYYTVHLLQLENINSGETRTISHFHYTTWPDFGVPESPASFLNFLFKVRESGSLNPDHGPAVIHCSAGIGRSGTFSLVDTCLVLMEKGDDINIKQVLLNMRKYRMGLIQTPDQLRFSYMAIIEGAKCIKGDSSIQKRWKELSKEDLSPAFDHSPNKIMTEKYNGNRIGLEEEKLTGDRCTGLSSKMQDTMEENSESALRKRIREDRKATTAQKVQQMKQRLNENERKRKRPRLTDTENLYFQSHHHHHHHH
Summary of the method: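 His-tagged human PTPN2 (TC45), 0.5 nM, preincubated 10 min at room temperature with compound (12-point, 1:3 dilutions) in HEPES pH 7.5 buffer with EGTA, EDTA, Tween 20 and DTT. Then 2 μM OG488-labelled phospho-insulin-receptor peptide was added for 10 min and quenched. % conversion was read by mobility shift, and IC50 came from % inhibition.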

[2] = target: T2, His tagged full-length PTPN1 protein (Homo sapiens, UniProt P18031); assay: Mobility shift assay (MSA) to determine potency of PTPN1 inhibitors; assay type: biochemical; conditions: 0.5 nM enzyme, 2 μM substrate
T2 construct: made in house
T2 sequence (P18031 with tags, fused parts or gaps): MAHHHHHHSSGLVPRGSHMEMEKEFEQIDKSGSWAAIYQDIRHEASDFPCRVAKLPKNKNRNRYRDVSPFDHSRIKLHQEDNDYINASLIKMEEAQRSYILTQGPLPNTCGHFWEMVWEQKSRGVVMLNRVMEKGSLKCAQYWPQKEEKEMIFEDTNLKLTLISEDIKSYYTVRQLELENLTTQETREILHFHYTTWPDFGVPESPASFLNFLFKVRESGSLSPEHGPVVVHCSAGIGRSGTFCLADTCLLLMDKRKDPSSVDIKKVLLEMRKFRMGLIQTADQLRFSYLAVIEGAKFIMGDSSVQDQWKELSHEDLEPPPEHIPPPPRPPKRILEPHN
Summary of the method: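 Readout is microfluidic mobility shift (ex 488/em 530 nm) of a 2 μM OG488-labelled pTyr insulin-receptor peptide after a 10 min room-temperature reaction, following 10 min enzyme–compound preincubation. Enzyme: 0.5 nM full-length His-tagged PTPN1 in HEPES pH 7.5 buffer. IC50 fitted from % inhibition at 12 concentrations (1:3 steps).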

IC50 [2] | Compound | IC50 [1]
10 to 100 nM | O=C1CN(c2c(O)cc3c(c2F)C[C@H](NCc2nccs2)CC3)S(=O)(=O)N1 [Compound 367, 5-[(7R)-1-fluoro-3-hydroxy-7-{[(1,3-thiazol-2-yl)methyl]amino}-5,6,7,8-tetrahydronaphthalen-2-yl]-1λ^6,2,5-thiadiazolidine-1,1,3-trione] | 10 to 100 nM
10 to 100 nM | O=C1CN(c2c(O)cc3c(c2F)C[C@H](NCc2ccnnc2)CC3)S(=O)(=O)N1 [Compound 368, 5-[(7R)-1-fluoro-3-hydroxy-7-{[(pyridazin-4-yl)methyl]amino}-5,6,7,8-tetrahydronaphthalen-2-yl]-1λ^6,2,5-thiadiazolidine-1,1,3-trione] | 10 to 100 nM
10 to 100 nM | CC(O)CCN[C@@H]1CCc2cc(O)c(N3CC(=O)NS3(=O)=O)c(F)c2C1 (stereo partly drawn) [Compound 369, 5-{(7R)-1-fluoro-3-hydroxy-7-[(3-hydroxybutyl)amino]-5,6,7,8-tetrahydronaphthalen-2-yl}-1λ^6,2,5-thiadiazolidine-1,1,3-trione] | 1 to 10 nM
10 to 100 nM | CC(C)CCN[C@@H]1COc2cc(O)c(N3CC(=O)NS3(=O)=O)c(F)c2C1 [Compound 372, 5-{(3S)-5-fluoro-7-hydroxy-3-[(3-methylbutyl)amino]-3,4-dihydro-2H-1-benzopyran-6-yl}-1λ^6,2,5-thiadiazolidine-1,1,3-trione] | 10 to 100 nM
10 to 100 nM | O=C1CN(c2c(O)cc3c(c2F)C[C@H](NCCCC(F)F)CO3)S(=O)(=O)N1 [Compound 373, 5-{(3S)-3-[(4,4-difluorobutyl)amino]-5-fluoro-7-hydroxy-3,4-dihydro-2H-1-benzopyran-6-yl}-1λ^6,2,5-thiadiazolidine-1,1,3-trione] | 1 to 10 nM
10 to 100 nM | CC(C)(CCN)CCN[C@@H]1CCc2cc(O)c(N3CC(=O)NS3(=O)=O)c(F)c2C1 [Compound 374, 5-{(7R)-7-[(5-amino-3,3-dimethylpentyl)amino]-1-fluoro-3-hydroxy-5,6,7,8-tetrahydronaphthalen-2-yl}-1λ^6,2,5-thiadiazolidine-1,1,3-trione] | 1 to 10 nM
10 to 100 nM | O=C1CN(c2c(O)cc3c(c2F)C[C@H](NCCC2CCOCC2)CO3)S(=O)(=O)N1 [Compound 375, 5-[(3S)-5-fluoro-7-hydroxy-3-{[2-(oxan-4-yl)ethyl]amino}-3,4-dihydro-2H-1-benzopyran-6-yl]-1λ^6,2,5-thiadiazolidine-1,1,3-trione] | 10 to 100 nM
1 to 10 nM | NCC1(CCN[C@@H]2CCc3cc(O)c(N4CC(=O)NS4(=O)=O)c(F)c3C2)CCC1 [Compound 376, 5-[(7R)-7-({2-[1-(aminomethyl)cyclobutyl]ethyl}amino)-1-fluoro-3-hydroxy-5,6,7,8-tetrahydronaphthalen-2-yl]-1λ^6,2,5-thiadiazolidine-1,1,3-trione] | < 1 nM
1 to 10 nM | NCCC1(CCN[C@@H]2CCc3cc(O)c(N4CC(=O)NS4(=O)=O)c(F)c3C2)CCC1 [Compound 377, 5-[(7R)-7-({2-[1-(2-aminoethyl)cyclobutyl]ethyl}amino)-1-fluoro-3-hydroxy-5,6,7,8-tetrahydronaphthalen-2-yl]-1λ^6,2,5-thiadiazolidine-1,1,3-trione] | < 1 nM
10 to 100 nM | O=C1CN(c2c(O)cc3c(c2F)C[C@H](NCCCOCC(F)F)CO3)S(=O)(=O)N1 [Compound 379, 5-[(3S)-3-{[3-(2,2-difluoroethoxy)propyl]amino}-5-fluoro-7-hydroxy-3,4-dihydro-2H-1-benzopyran-6-yl]-1λ^6,2,5-thiadiazolidine-1,1,3-trione] | 10 to 100 nM
10 to 100 nM | O=C1CN(c2c(O)cc3c(c2F)C[C@H](NCC2CCC(C(F)(F)F)CC2)CO3)S(=O)(=O)N1 (stereo partly drawn) [Compound 380, 5-[(3S)-5-fluoro-7-hydroxy-3-({[4-(trifluoromethyl)cyclohexyl]methyl}amino)-3,4-dihydro-2H-1-benzopyran-6-yl]-1λ^6,2,5-thiadiazolidine-1,1,3-trione] | 10 to 100 nM
> 100 nM | O=C1CN(c2c(O)cc3c(c2F)C[C@H](NCC2(CF)CC2)CO3)S(=O)(=O)N1 [Compound 381, 5-[(3S)-5-fluoro-3-({[1-(fluoromethyl)cyclopropyl]methyl}amino)-7-hydroxy-3,4-dihydro-2H-1-benzopyran-6-yl]-1λ^6,2,5-thiadiazolidine-1,1,3-trione] | 10 to 100 nM
10 to 100 nM | O=C1CN(c2c(O)cc3c(c2F)C[C@H](NCCC2CCOC2)CO3)S(=O)(=O)N1 (stereo partly drawn) [Compound 382, 5-[(3S)-5-fluoro-7-hydroxy-3-{[2-(oxolan-3-yl)ethyl]amino}-3,4-dihydro-2H-1-benzopyran-6-yl]-1λ^6,2,5-thiadiazolidine-1,1,3-trione] | 10 to 100 nM
10 to 100 nM | CC(C)(C)OC(=O)N1CCC(CN[C@@H]2COc3cc(O)c(N4CC(=O)NS4(=O)=O)c(F)c3C2)CC1 [Compound 384, tert-butyl 4-({[(3S)-5-fluoro-7-hydroxy-6-(1,1,4-trioxo-1λ^6,2,5-thiadiazolidin-2-yl)-3,4-dihydro-2H-1-benzopyran-3-yl]amino}methyl) piperidine-1-carboxylate] | 10 to 100 nM
10 to 100 nM | O=C1CN(c2c(O)cc3c(c2F)C[C@H](NCC2CC(c4ccccc4)C2)CO3)S(=O)(=O)N1 (stereo partly drawn) [Compound 385, 5-[(3S)-5-fluoro-7-hydroxy-3-{[(3-phenylcyclobutyl)methyl]amino}-3,4-dihydro-2H-1-benzopyran-6-yl]-1λ^6,2,5-thiadiazolidine-1,1,3-trione] | 1 to 10 nM
10 to 100 nM | O=C1CN(c2c(O)cc3c(c2F)C[C@H](NCCCc2ccccc2)CO3)S(=O)(=O)N1 [Compound 386, 5-{(3S)-5-fluoro-7-hydroxy-3-[(3-phenylpropyl)amino]-3,4-dihydro-2H-1-benzopyran-6-yl}-1λ^6,2,5-thiadiazolidine-1,1,3-trione] | 10 to 100 nM
> 100 nM | CC(C)CCCN1CCc2cc(O)c(N3CC(=O)NS3(=O)=O)c(F)c2C1=O [Compound 387, 5-[8-fluoro-6-hydroxy-2-(4-methylpentyl)-1-oxo-1,2,3,4-tetrahydroisoquinolin-7-yl]-1λ^6,2,5-thiadiazolidine-1,1,3-trione] | > 100 nM
> 100 nM | O=C1CN(c2c(O)cc3c(c2F)C(=O)NCC3)S(=O)(=O)N1 [Compound 388, 5-(8-fluoro-6-hydroxy-1-oxo-1,2,3,4-tetrahydroisoquinolin-7-yl)-1λ^6,2,5-thiadiazolidine-1,1,3-trione] | > 100 nM
10 to 100 nM | NCC1CCc2cc(O)c(N3CC(=O)NS3(=O)=O)c(F)c2C1 (stereo not drawn) [Compound 389, 5-[7-(aminomethyl)-1-fluoro-3-hydroxy-5,6,7,8-tetrahydronaphthalen-2-yl]-1λ^6,2,5-thiadiazolidine-1,1,3-trione] | 10 to 100 nM
10 to 100 nM | CC(C)CCNCC1CCc2cc(O)c(N3CC(=O)NS3(=O)=O)c(F)c2C1 (stereo not drawn) [Compound 390, 5-(1-fluoro-3-hydroxy-7-{[(3-methylbutyl)amino]methyl}-5,6,7,8-tetrahydronaphthalen-2-yl)-1λ^6,2,5-thiadiazolidine-1,1,3-trione] | 10 to 100 nM
10 to 100 nM | CC(C)(C)OC(=O)NCC1CCc2cc(O)c(N3CC(=O)NS3(=O)=O)c(F)c2C1 (stereo not drawn) [Compound 391, tert-butyl {[8-fluoro-6-hydroxy-7-(1,1,4-trioxo-1λ^6,2,5-thiadiazolidin-2-yl)-1,2,3,4-tetrahydronaphthalen-2-yl]methyl}carbamate] | 10 to 100 nM
1 to 10 nM | CC(C)CCN[C@H]1Cc2c(cc(O)c(N3CC(=O)NS3(=O)=O)c2F)C[C@H]1O [Compound 393, 5-{(6R,7S)-1-fluoro-3,6-dihydroxy-7-[(3-methylbutyl)amino]-5,6,7,8-tetrahydronaphthalen-2-yl}-1λ^6,2,5-thiadiazolidine-1,1,3-trione] | 1 to 10 nM
10 to 100 nM | O=C1CN(c2c(O)cc3c(c2F)CC(CNCCCC2CC2)CC3)S(=O)(=O)N1 (stereo not drawn) [Compound 394, 5-(7-{[(3-cyclopropylpropyl)amino]methyl}-1-fluoro-3-hydroxy-5,6,7,8-tetrahydronaphthalen-2-yl)-1λ^6,2,5-thiadiazolidine-1,1,3-trione] | 10 to 100 nM
> 100 nM | C[C@@H]1C[C@@H](NC(=O)OC(C)(C)C)Cc2c1cc(O)c(N1CC(=O)NS1(=O)=O)c2F [Compound 395, tert-butyl [(2R,4R)-8-fluoro-6-hydroxy-4-methyl-7-(1,1,4-trioxo-1λ^6,2,5-thiadiazolidin-2-yl)-1,2,3,4-tetrahydronaphthalen-2-yl]carbamate] | > 100 nM
